Laboratory results reported in publication PMC4713475, “In Vivo Differences between Two Optical Isomers of Radioiodinated o-iodo-trans-decalinvesamicol for Use as a Radioligand for the Vesicular Acetylcholine Transporter” (PLoS ONE, 2016).
Where two headings read alike, the source gives them in different places. One block for each compound: values may come before it.

What was measured:
[1] = set-up: method as in PMID 24174343; details: previous report; cited from earlier work
[2] = target: σ-1 receptor (Rattus norvegicus, UniProt Q9R0C9); experiment: σ-1 receptor competitive binding with (+)-[3H]pentazocine in rat cerebrum preparations
σ-1 receptor, sequence (Q9R0C9 whole entry): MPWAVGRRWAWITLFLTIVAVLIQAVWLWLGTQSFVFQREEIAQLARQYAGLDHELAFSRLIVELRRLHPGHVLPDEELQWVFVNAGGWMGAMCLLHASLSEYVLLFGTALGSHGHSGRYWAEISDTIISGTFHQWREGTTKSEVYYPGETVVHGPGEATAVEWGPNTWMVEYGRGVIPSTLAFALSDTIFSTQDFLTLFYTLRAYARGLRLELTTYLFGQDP

[3] = target: T1, VAChT (Rattus norvegicus, UniProt Q62666); experiment: VAChT in vitro competitive binding with (-)-[3H]vesamicol in rat brain preparations; details: read-out: Ki VAChT
T1 construct: The rats were sacrificed 60 minutes after injection and their brains collected; from tissue; host or cells: brain of live male Sprague-Dawley rats (in vivo)
T1 sequence (Q62666 1-530): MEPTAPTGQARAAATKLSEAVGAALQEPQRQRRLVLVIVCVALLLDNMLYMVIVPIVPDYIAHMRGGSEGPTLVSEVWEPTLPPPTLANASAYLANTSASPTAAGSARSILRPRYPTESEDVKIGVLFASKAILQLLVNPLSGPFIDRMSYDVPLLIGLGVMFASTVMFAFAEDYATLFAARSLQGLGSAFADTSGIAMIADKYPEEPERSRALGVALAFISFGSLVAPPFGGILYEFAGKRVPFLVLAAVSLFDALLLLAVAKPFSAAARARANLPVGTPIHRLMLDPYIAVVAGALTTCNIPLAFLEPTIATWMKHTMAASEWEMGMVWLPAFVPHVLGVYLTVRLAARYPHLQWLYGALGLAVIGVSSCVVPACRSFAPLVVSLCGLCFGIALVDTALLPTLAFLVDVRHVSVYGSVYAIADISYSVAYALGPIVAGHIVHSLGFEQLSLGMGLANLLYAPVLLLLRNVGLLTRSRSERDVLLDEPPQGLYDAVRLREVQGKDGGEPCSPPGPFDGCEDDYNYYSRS

[4] = target: T2, σ-2 receptor (Rattus norvegicus, UniProt Q5U3Y7); experiment: σ-2 receptor competitive binding with [3H]DTG in rat liver preparations; details: read-out: Ki σ-2
T2 construct: Rat liver preparations (about 100 μg protein) were incubated in quadruplicate; from tissue; host or cells: liver of male Sprague-Dawley rats
T2 sequence (Q5U3Y7 1-176): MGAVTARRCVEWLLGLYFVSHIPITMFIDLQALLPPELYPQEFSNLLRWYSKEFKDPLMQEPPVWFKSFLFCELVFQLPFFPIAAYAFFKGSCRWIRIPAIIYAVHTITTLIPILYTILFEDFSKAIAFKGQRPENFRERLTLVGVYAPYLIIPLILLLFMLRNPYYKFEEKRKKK

SMILES: OC1C[C@@H]2CCCC[C@H]2CC1N1CCC(c2ccccc2[125I])CC1 (mixture of isomers) [racemic [^125I]OIDV]
- radiolabeled metabolites in the brain [1]: unable to observe the presence of radiolabeled metabolites in the brain

- Ki [2]: 168 ± 47.2 nM
- Ki [3]: 22.1 ± 4.3 nM
- Ki [4]: 59.9 ± 10.6 nM
SMILES: O[C@@H]1C[C@H]2CCCC[C@@H]2C[C@H]1N1CCC(c2ccccc2I)CC1 [(-)-OIDV]

SMILES: OC1CC2CCCCC2CC1N1CCC(c2ccccc2)CC1 (stereo not shown) [DV, decalinvesamicol]
- Ki ([2]; read-out: Ki σ-1, rat cerebrum preparations, 5 nM (+)-[3H]pentazocine, 37°C 90 min, mean ± SD): 74.4 ± 12 nM
- Ki ([3]; rat brain preparations, (-)-[3H]vesamicol, 200 nM DTG to mask sigma receptors, 37°C 60 min, mean ± SD): 8.6 ± 2.5 nM
- Ki ([4]; rat liver preparations, 5 nM [3H]DTG, 1 μM (+)-pentazocine to mask σ-1, 37°C 90 min, mean ± SD): 65.9 ± 12.1 nM
